Source: patent US10155751B2, “Pyrazolyl-substituted heteroaryls and their use as medicaments” (Boehringer Ingelheim International GmbH, priority 2015, dated 2018)

tested on: human hepatocytes; experiment: Human hepatocyte stability test; assay type: in vitro ADME; settings: human hepatocyte suspension, percent of hepatic blood flow
Experimental: A more comprehensive way to measure the metabolic stability of a compound of the instant invention than microsomal stability (section 5.6) is the human hepatocyte stability test as described below. Herein the metabolic degradation for the compound in question is performed in a human hepatocyte suspension.
Human hepatocytes (typically cryopreserved) are incubated in an appropriate buffer system (e.g. Dulbecco's modified eagle medium plus 3.5 μg glucagon/500 mL, 2.5 mg insulin/500 mL and 3.75 mg/500 mL hydrocortison) containing 5% species serum.
Following a (typically) 30 min preincubation in an incubator (37° C., 10% CO2) 5 μl of the solution of the compound to be tested ([…]; from 2 mM in DMSO stock solution diluted 1:25 with medium) are added into 395 μl hepatocyte suspension (cell density is in the range of 0.25-5 Mio cells/mL, typically 1 Mio cells/mL; the final concentration of the compound in question is […], the final DMSO concentration is 0.05%).
The cells are incubated for six hours (incubator, orbital shaker) and samples (25 μl) are taken at 0, 0.5, 1, 2, 4 and 6 hours. Samples are transferred into acetonitrile and pelleted by centrifugation (5 min). The supernatant is transferred to a new 96-deepwell plate, evaporated under nitrogen and resuspended.
The decline of the compound to be tested is analyzed by HPLC-MS/MS.
CLint is calculated as follows CL_INTRINSIC=Dose/AUC=(C0/CD)/(AUD+clast/k)×1000/60.
C0: initial concentration in the incubation [μM], CD: cell density of vital cells [10^6 cells/mL], AUD: area under the data [μM×h], clast: concentration of last data point [μM], k: slope of the regression line for the compound in question decline [h−1].
The calculated in vitro hepatic intrinsic clearance can be scaled up to the intrinsic in vivo hepatic Clearance and used to predict hepatic in vivo blood clearance (CL) by the use of a liver model (well stirred model). CL_INTRINSIC_INVIVO [ml/min/kg]=(CL_INTRINSIC [μL/min/10^6cells]×hepatocellularity[10^6 cells/g liver]×liver factor [g/kg bodyweight])/1000 CL [ml/min/kg]=CL_INTRINSIC_INVIVO [ml/min/kg]×hepatic blood flow [ml/min/kg]/(CL_INTRINSIC_INVIVO [ml/min/kg]+hepatic blood flow [ml/min/kg]) Qh[%]=CL [ml/min/kg]/hepatic blood flow [ml/min/kg]) […]
Hepatocellularity, human: 120×10^6 cells/g liver
Liver factor, human: 25.7 g/kg bodyweight
Blood flow, human: 21 ml/(min×kg)
A satisfying human hepatocyte stability for a compound in question measured by this assay is represented by a Qh<20% (whereby the stability is better, the lower the Qh-value is).

Which “stability in human hepatocytes (chapter 5.7) HEPhu” value (from here on “stability in human hepatocytes”) does the source give for `C[C@@H](Oc1cc(-c2cnn(C3CCC3)c2)cc2nn(C)c(F)c12)[C@H]1CNC(=O)C1` [Example 1, (R)-4-{(R)-1-[6-(1-Cyclobutyl-1H-pyrazol-4-yl)-3-fluoro-2-methyl-2H-indazol-4-yloxy]-ethyl}-pyrrolidin-2-one] here?
Its value is 10 % Qh.

Which “stability in human hepatocytes” value does the source give for `CC(C)n1cc(-c2cc(O[C@H](C)[C@H]3CNC(=O)C3)c3c(F)n(C)nc3c2)cn1` [Example 2, (R)-4-{(R)-1-[3-Fluoro-6-(1-isopropyl-1H-pyrazol-4-yl)-2-methyl-2H-indazol-4-yloxy]-ethyl}-pyrrolidin-2-one] here?
Its value is under 4 % Qh.

For `Cc1c2c(O[C@H](C)[C@H]3CNC(=O)O3)nc(-c3cnn(C(C)(C)C)c3)cc2nn1C` [Example 3, (R)-5-{(R)-1-[6-(1-tert-Butyl-1H-pyrazol-4-yl)-2,3-dimethyl-2H-pyrazolo[4,3-c]pyridin-4-yloxy]-ethyl}-oxazolidin-2-one], which “stability in human hepatocytes” value is on record?
The value was 7 % Qh.

For `Cc1c2c(O[C@H](C)[C@H]3CNC(=O)C3)nc(-c3c[nH]nc3C(C)(C)C)cc2nn1C` [Example 4, (R)-4-{(R)-1-[6-(3-tert-Butyl-1H-pyrazol-4-yl)-2,3-dimeth-yl-2H-pyrazolo[4,3-c]pyridin-4-yloxy]-ethyl}-pyrrolidin-2-one], which “stability in human hepatocytes” value is on record?
The value was 10 % Qh.

With `C[C@@H](Oc1cc(-c2cnn(C3CC3)c2)cc2nn(C)c(F)c12)[C@H]1CNC(=O)C1` [Example 5, (R)-4-{(R)-1-[6-(1-Cycloprop-yl-1H-pyrazol-4-yl)-3-fluoro-2-methyl-2H-indazol-4-yloxy]-ethyl}-pyrrolidin-2-one] as the compound, how does the “stability in human hepatocytes” value read?
The value was under 4 % Qh.

How did the “stability in human hepatocytes” value turn out when `C[C@@H](Oc1cc(-c2cnn(CC3CC3)c2)cc2nn(C)c(F)c12)[C@H]1CNC(=O)C1` [Example 6, (R)-4-{(R)-1-[6-(1-Cycloprop-ylmethyl-1H-pyrazol-4-yl)-3-fluoro-2-methyl-2H-indazol-4-yloxy]-ethyl}-pyrrolidin-2-one] was run?
The value was 6 % Qh.

`C[C@@H](Oc1cc(-c2cnn(C3CCC(F)(F)C3)c2)cc2nn(C)c(F)c12)[C@H]1CNC(=O)C1` (some centres unmarked) [Example 7] was tested. Which “stability in human hepatocytes” value did it give?
Its value is under 4 % Qh.

For `Cc1c2c(O[C@H](C)[C@H]3CNC(=O)C3)cc(-c3cnn(CC4CC4)c3)cc2nn1C` [Example 8, (R)-4-{(R)-1-[6-(1-Cyclopropylmethyl-1H-pyrazol-4-yl)-2,3-dimethyl-2H-indazol-4-yloxy]-ethyl}-pyrrolidin-2-one], which “stability in human hepatocytes” value is on record?
The value was 5 % Qh.

How did the “stability in human hepatocytes” value turn out when `Cc1c2c(O[C@H](C)[C@H]3CNC(=O)C3)cc(-c3cnn([C@@H]4CCOC(C)(C)C4)c3)cc2nn1C` [Example 9, (R)-4-((R)-1-{6-[1-((R)-2,2-Dimethyl-tetrahydro-pyran-4-yl)-1H-pyrazol-4-yl]-2,3-dimethyl-2H-indazol-4-yloxy}-ethyl)-pyrrolidin-2-one] was run?
Its value is 6 % Qh.

For `Cc1c2c(O[C@H](C)[C@H]3CNC(=O)C3)cc(-c3cnn([C@H]4CO[C@@H]5CCCO[C@@H]54)c3)cc2nn1C` [Example 10, 4-(1-{6-[(R)-(3S,3aR,7aR)-1-(Hexahydro-furo[3,2-b]pyran-3-yl)-1H-pyrazol-4-yl]-2,3-dimethyl-2H-indazol-4-yloxy}-ethyl)-pyrrolidin-2-one], which “stability in human hepatocytes” value is on record?
Its value is 9 % Qh.

For `Cc1c2c(O[C@H](C)[C@H]3CNC(=O)C3)cc(-c3cnn(CCF)c3)cc2nn1C` [Example 11, (R)-4-((R)-1-{6-[1-(2-Fluoro-ethyl)-1H-pyrazol-4-yl]-2,3-dimethyl-2H-indazol-4-yloxy}-ethyl)-pyrrolidin-2-one], which “stability in human hepatocytes” value is on record?
Its value is 4 % Qh.

Which “stability in human hepatocytes” value does the source give for `C[C@@H](Oc1cc(-c2cnn(CCC(F)(F)F)c2)cc2nn(C)c(F)c12)[C@H]1CNC(=O)C1` [Example 12, (R)-4-((R)-1-{3-Fluoro-2-methyl-6-[1-(3,3,3-trifluoro-propyl)-1H-pyrazol-4-yl]-2H-indazol-4-yloxy}-ethyl)-pyrrolidin-2-one] here?
The value was under 4 % Qh.

`Cc1c2c(O[C@H](C)[C@H]3CNC(=O)C3)cc(-c3cnn(C(C)(C)C)c3)cc2nn1C` [Example 13, (R)-4-{(R)-1-[6-(1-tert-Butyl-1H-pyrazol-4-yl)-2,3-dimethyl-2H-indazol-4-yloxy]-ethyl}-pyrrolidin-2-one] was tested. Which “stability in human hepatocytes” value did it give?
Its value is 3 % Qh.

How did the “stability in human hepatocytes” value turn out when `C[C@@H](Oc1cc(-c2cnn(C3CC(C)(C)OC3(C)C)c2)cc2nn(C)c(F)c12)[C@H]1CNC(=O)C1` (stereo partly drawn) [Example 14, (R)-4-((R)-1-{3-Fluoro-2-methyl-6-[1-(2,2,5,5-tetramethyl-tetrahydro-furan-3-yl)-1H-pyrazol-4-yl]-2H-indazol-4-yloxy}-ethyl)-pyrrolidin-2-one] was run?
Its value is 12 % Qh.

How did the “stability in human hepatocytes” value turn out when `Cc1c2c(O[C@H](C)[C@H]3CNC(=O)C3)cc(-c3cnn(C4CC(C)(C)OC4(C)C)c3)cc2nn1C` (stereo partly drawn) [Example 16, (R)-4-((R)-1-{2,3-Dimethyl-6-[1-(2,2,5,5-tetramethyl-tetrahydro-furan-3-yl)-1H-pyrazol-4-yl]2H-indazol-4-yloxy}-ethyl)-pyrrolidin-2-one] was run?
Its value is 6 % Qh.

With `Cc1c2c(O[C@H](C)[C@H]3CNC(=O)C3)cc(-c3cnn(C(C)(C)C#N)c3)cc2nn1C` [Example 17, 2-(4-{2,3-Dimethyl-4-[(R)-1-((R)-5-oxo-pyrrolidin-3-yl)-ethoxy]-2H-indazol-6-yl}-pyrazol-1-yl)-2-methyl-propionitrile] as the compound, how does the “stability in human hepatocytes” value read?
The value was 4 % Qh.

Which “stability in human hepatocytes” value does the source give for `Cc1c2c(O[C@H](C)[C@H]3CNC(=O)C3)cc(-c3cnn(C(C)C)c3)cc2nn1C` [Example 18, (R)-4-{(R)-1-[6-(1-Isopropyl-1H-pyrazol-4-yl)-2,3-dimethyl-2H-indazol-4-yloxy]-ethyl}-pyrrolidin-2-one] here?
Its value is under 4 % Qh.

Which “stability in human hepatocytes” value does the source give for `Cc1c2c(O[C@H](C)[C@H]3CNC(=O)C3)cc(-c3cnn(CC(C)C)c3)cc2nn1C` [Example 19, (R)-4-{(R)-1-[6-(1-Isobutyl-1H-pyrazol-4-yl)-2,3-dimethyl-2H-indazol-4-yloxy]-ethyl}-pyrrolidin-2-one] here?
The value was 7 % Qh.

`Cc1c2c(O[C@H](C)[C@H]3CNC(=O)C3)cc(-c3cnn(C4CC4)c3)cc2nn1C` [Example 20, (R)-4-{(R)-1-[6-(1-Cyclopropyl-1H-pyrazol-4-yl)-2,3-dimethyl-2H-indazol-4-yloxy]-ethyl}-pyrrolidin-2-one] was tested. Which “stability in human hepatocytes” value did it give?
The value was under 4 % Qh.

Which “stability in human hepatocytes” value does the source give for `Cc1c2c(O[C@H](C)[C@H]3CNC(=O)C3)cc(-c3cnn(C4CCC4)c3)cc2nn1C` [Example 21, (R)-4-{(R)-1-[6-(1-Cyclobutyl-1H-pyrazol-4-yl)-2,3-dimethyl-2H-indazol-4-yloxy]-ethyl}-pyrrolidin-2-one] here?
Its value is 7 % Qh.

For `Cc1c2c(O[C@H](C)[C@H]3CNC(=O)C3)cc(-c3cnn(C4CCC(F)(F)C4)c3)cc2nn1C` (stereo partly drawn) [Example 22, (R)-4-((R)-1-{6-[1-(3,3-Difluoro-cyclopentyl)-1H-pyrazol-4-yl]-2,3-dimethyl-2H-indazol-4-yloxy}-ethyl)-pyrrolidin-2-one], which “stability in human hepatocytes” value is on record?
Its value is 3 % Qh.

How did the “stability in human hepatocytes” value turn out when `C[C@@H](Oc1nc(-c2cnn(C(C)(C)C)c2)cc2ncn(C)c12)[C@H]1CNC(=O)C1` [example 3A.02, on page 196 of WO15017610, reference compound] was run?
Its value is 7 % Qh.

For `C[C@@H](Oc1cc(-c2cnn(C(C)(C)C)c2)cc2ncn(C)c12)[C@H]1CNC(=O)C1` [example 3B.22 on page 219 of WO15017610, reference compound], which “stability in human hepatocytes” value is on record?
Its value is 5 % Qh.

Which “stability in human hepatocytes” value does the source give for `Cc1cnn2cc(-c3cnn(C(C)(C)C)c3)nc(O[C@H](C)[C@H]3CNC(=O)C3)c12` [example 5.20 on page 506 of WO15017610, reference compound] here?
The value was 31 % Qh.

How did the “stability in human hepatocytes” value turn out when `Cc1cnn2cc(-c3cnn(C(C)(C)C)c3)cc(O[C@H](C)[C@H]3CNC(=O)C3)c12` [example 6.09 on page 559 of WO15017610, reference compound] was run?
Its value is 17 % Qh.

For `Cc1cc2c(O[C@H](C)[C@H]3CNC(=O)C3)cc(-c3cnn(C(C)(C)C)c3)cn2n1` [example 6.60 on page 587 of WO15017610, reference compound], which “stability in human hepatocytes” value is on record?
Its value is under 4 % Qh.
